According to ChEMBL document CHEMBL1909294, “Translating clinical findings into knowledge in drug safety evaluation--drug induced liver injury prediction system (DILIps)” (PLoS Comput Biol, 2011):

Legend:
[1] = tested on: Hepatotoxicity;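 on HepSE Combined Scores: combined hepatic side effect score as listed in the training data of the Drug Induced Liver Injury Prediction System (DILIps)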;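 on HepSE cholecystitis: Cholecystitis-related hepatic side effect score drawn from the DILIps (drug-induced liver injury prediction) training data set; call rule not given here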;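 on HepSE elevated liver function tests: hepatic side effect score for raised liver function tests, as recorded in the DILIps training set used for predicting drug-induced liver injury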; on HepSE hepatic failure: call rule not given here;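 on HepSE hepatic necrosis: score of hepatic side effects for hepatic necrosis, drawn from the training data of DILIps, a prediction system for drug-induced liver injury; call rule not given here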;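 on HepSE hepatomegaly: hepatic side effect score for hepatomegaly, taken from the training set of the DILIps drug-induced liver injury prediction system; call rule not given here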;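 on HepSE jaundice: Jaundice-related hepatic side-effect score drawn from the training data of the DILIps (drug-induced liver injury prediction system); call rule not given here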
[2] = tested on: Hepatotoxicity; remark: listed apart in the source;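 on HepSE Combined Scores: combined hepatic side effect score as listed in the training data of the Drug Induced Liver Injury Prediction System (DILIps)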;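 on HepSE cholecystitis: Cholecystitis-related hepatic side effect score drawn from the DILIps (drug-induced liver injury prediction) training data set; call rule not given here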;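 on HepSE elevated liver function tests: hepatic side effect score for raised liver function tests, as recorded in the DILIps training set used for predicting drug-induced liver injury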; on HepSE hepatic failure: call rule not given here;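 on HepSE hepatic necrosis: score of hepatic side effects for hepatic necrosis, drawn from the training data of DILIps, a prediction system for drug-induced liver injury; call rule not given here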;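 on HepSE hepatomegaly: hepatic side effect score for hepatomegaly, taken from the training set of the DILIps drug-induced liver injury prediction system; call rule not given here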
[3] = tested on: Hepatotoxicity; remark: listed apart in the source;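 on HepSE Combined Scores: combined hepatic side effect score as listed in the training data of the Drug Induced Liver Injury Prediction System (DILIps)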;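 on HepSE cholecystitis: Cholecystitis-related hepatic side effect score drawn from the DILIps (drug-induced liver injury prediction) training data set; call rule not given here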;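 on HepSE elevated liver function tests: hepatic side effect score for raised liver function tests, as recorded in the DILIps training set used for predicting drug-induced liver injury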; on HepSE hepatic failure: call rule not given here;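 on HepSE hepatic necrosis: score of hepatic side effects for hepatic necrosis, drawn from the training data of DILIps, a prediction system for drug-induced liver injury; call rule not given here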;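 on HepSE hepatomegaly: hepatic side effect score for hepatomegaly, taken from the training set of the DILIps drug-induced liver injury prediction system; call rule not given here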
[4] = tested on: Hepatotoxicity; remark: listed apart in the source;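 on HepSE Combined Scores: combined hepatic side effect score as listed in the training data of the Drug Induced Liver Injury Prediction System (DILIps)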;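 on HepSE cholecystitis: Cholecystitis-related hepatic side effect score drawn from the DILIps (drug-induced liver injury prediction) training data set; call rule not given here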;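 on HepSE elevated liver function tests: hepatic side effect score for raised liver function tests, as recorded in the DILIps training set used for predicting drug-induced liver injury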; on HepSE hepatic failure: call rule not given here;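 on HepSE hepatic necrosis: score of hepatic side effects for hepatic necrosis, drawn from the training data of DILIps, a prediction system for drug-induced liver injury; call rule not given here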;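 on HepSE hepatomegaly: hepatic side effect score for hepatomegaly, taken from the training set of the DILIps drug-induced liver injury prediction system; call rule not given here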
[5] = tested on: Hepatotoxicity; remark: listed apart in the source; on HepSE hepatic failure: call rule not given here
[6] = tested on: Hepatotoxicity; remark: listed apart in the source; on HepSE hepatic failure: call rule not given here
[7] = tested on: Hepatotoxicity; remark: listed apart in the source
[8] = tested on: Hepatotoxicity; remark: listed apart in the source
[9] = tested on: Hepatotoxicity; remark: listed apart in the source
[10] = tested on: Hepatotoxicity; remark: listed apart in the source
[11] = tested on: Hepatotoxicity; remark: listed apart in the source
[12] = tested on: Hepatotoxicity; remark: listed apart in the source
[13] = tested on: Hepatotoxicity; remark: listed apart in the source
[14] = tested on: Hepatotoxicity; remark: listed apart in the source

Row | Compound | HepSE_hepatomegaly [1] | HepSE_Combined Scores [2] | HepSE_elevated liver function tests [3] | HepSE_hepatic necrosis [4] | HepSE_cholecystitis [5] | HepSE_hepatic failure [6] | HepSE_jaundice [7] | HepSE_bilirubinemia [8] | HepSE_liver function tests abnormal [9] | HepSE_hepatitis [10] | HepSE_cirrhosis [11] | HepSE_cholelithiasis [12] | HepSE_liver fatty [13] | HepSE_liver disease [14] | further results
1 | Nc1ccc(O)c(C(=O)O)c1 [MESALAMINE] | 0 | 8 | 1 | 1 | 1 | 1 | 1 | 0 | 0 | 1 | 1 | 1 | 0 | 0 | 
2 | OC[C@@H](O)[C@@H](O)[C@H](O)[C@H](O)CO [MANNITOL] | 0 | 0 | 0 | 0 | 0 | 0 | 0 | 0 | 0 | 0 | 0 | 0 | 0 | 0 | 
3 | CCNC(=O)CCC/C=C\C[C@@H]1[C@@H](/C=C/[C@@H](O)CCc2ccccc2)[C@H](O)C[C@@H]1O [BIMATOPROST] | 0 | 1 | 0 | 0 | 0 | 0 | 0 | 0 | 1 | 0 | 0 | 0 | 0 | 0 | 
4 | CCC1=C(C)CN(C(=O)NCCc2ccc(S(=O)(=O)NC(=O)N[C@H]3CC[C@H](C)CC3)cc2)C1=O [GLIMEPIRIDE] | 0 | 3 | 0 | 0 | 0 | 1 | 1 | 0 | 0 | 1 | 0 | 0 | 0 | 0 | 
5 | CC[C@H]1OC(=O)[C@H](C)C(=O)[C@H](C)[C@@H](O[C@@H]2O[C@H](C)C[C@H](N(C)C)[C@H]2O)[C@](C)(OC)C[C@@H](C)C(=O)[C@H](C)[C@H]2N(CCCCn3cnc(-c4cccnc4)c3)C(=O)O[C@]12C [TELITHROMYCIN] |  |  |  |  |  |  |  |  |  |  |  |  |  |  | HepSE_hepatomegaly ([1]; Liver): 0; HepSE_Combined Scores ([2]; Liver): 5; HepSE_elevated liver function tests ([3]; Liver): 0; HepSE_hepatic necrosis ([4]; Liver): 1; HepSE_cholecystitis ([5]; Liver): 0; HepSE_hepatic failure ([6]; Liver): 1; HepSE_jaundice ([7]; Liver): 1; HepSE_bilirubinemia ([8]; Liver): 0; HepSE_liver function tests abnormal ([9]; Liver): 1; HepSE_hepatitis ([10]; Liver): 1; HepSE_cirrhosis ([11]; Liver): 0; HepSE_cholelithiasis ([12]; Liver): 0; HepSE_liver fatty ([13]; Liver): 0; HepSE_liver disease ([14]; Liver): 0
6 | CN1C(CCl)Nc2cc(Cl)c(S(N)(=O)=O)cc2S1(=O)=O (configuration not stated) [METHYCLOTHIAZIDE] | 0 | 1 | 0 | 0 | 0 | 0 | 1 | 0 | 0 | 0 | 0 | 0 | 0 | 0 | 
7 | CC1(C)O[C@@H]2C[C@H]3[C@@H]4CCC5=CC(=O)CC[C@]5(C)[C@@]4(F)[C@@H](O)C[C@]3(C)[C@]2(C(=O)CCl)O1 [HALCINONIDE] | 0 | 0 | 0 | 0 | 0 | 0 | 0 | 0 | 0 | 0 | 0 | 0 | 0 | 0 | 
8 | COc1ccc2c3c1O[C@H]1C[C@@H](O)C=C[C@@]31CCN(C)C2 [GALANTAMINE] | 0 | 1 | 0 | 0 | 0 | 0 | 0 | 0 | 0 | 1 | 0 | 0 | 0 | 0 | 
9 | CNCCc1ccccn1 [BETAHISTINE] | 0 | 0 | 0 | 0 | 0 | 0 | 0 | 0 | 0 | 0 | 0 | 0 | 0 | 0 | 
10 | C[C@]12C=CC(=O)C=C1CC[C@H]1[C@@H]3C[C@@H](O)[C@](O)(C(=O)CO)[C@@]3(C)C[C@H](O)[C@@]12F [TRIAMCINOLONE] | 1 | 1 | 0 | 0 | 0 | 0 | 0 | 0 | 0 | 0 | 0 | 0 | 0 | 0 | 
11 | CCCN1C[C@H](CSC)C[C@@H]2c3cccc4[nH]cc(c34)C[C@H]21 [PERGOLIDE] | 1 | 6 | 0 | 0 | 1 | 0 | 1 | 0 | 1 | 1 | 0 | 1 | 0 | 0 | 
12 | GLATIRAMER ACETATE | 1 | 5 | 0 | 0 | 1 | 0 | 0 | 0 | 0 | 1 | 1 | 1 | 0 | 0 | 
13 | COC(=O)[C@H]1[C@H]2C[C@@H]3c4[nH]c5cc(OC)ccc5c4CCN3C[C@H]2C[C@@H](OC(=O)c2cc(OC)c(OC)c(OC)c2)[C@@H]1OC [RESERPINE] | 0 | 0 | 0 | 0 | 0 | 0 | 0 | 0 | 0 | 0 | 0 | 0 | 0 | 0 | 
